Source: patent publication US20250326799A1, “AGENTS INDUCING VASCULARISATION” (Coegin Pharma AB, priority 2022, published 2025)
“Also recorded” adds a separate entry of the source.

Assays:
[1] = tested on: Human umbilical cord endothelial cells (HUVECs); assay: Endothelial tube formation on Geltrex matrix; format: cell-based; settings: for tube formation (total length, master segments, branching, segments length): HUVECs treated with peptide; for endothelial tube formation / endothelial tube formation after NRP-1 knock-down: HUVECs; for endothelial tube formation: 10 nM, 100 nM, 1000 nM, compared to control; for endothelial tube formation after NRP-1 knock-down: siRNA-NC or siNRP-1 group, then rising dose of peptide
Experimental: Cells were transfected for 48 hours or performed with 0.5% supplement starvation for 24 hours on 6-well plates as described above and dissociated by Accutase (Gibco, USA) to obtain cell suspension. Geltrex reduced growth factor basement membrane matrix ((Invitrogen, CA, USA) was thawed at 4° C. overnight and added into a 96-well plate (50 µl/well) next. The coated 96-well plate was placed in the incubator more than 30 mins for further use and the cell suspension was seeded into it at a density of 1.5 x 10^4/well. For NRP-1 silencing experiments, cells were cultured with complete medium. For polypeptide treatment experiments, cells were stimulated with complete medium plus the different concentration of polypeptide. For NRP-1 rescued experiments, cells transfected with siRNA were cultured with complete medium and NRP-1 stimulations. After a 24-hour incubation, images were recorded by an inverted microscope (Nikon, Eclipse TE2000-U, Japan) and the sum length of master segments of vessels in each image were quantified using Angiogenesis Analyzer plug-in ImageJ software program (pixel/unit). Data were analyzed with photographs from 8-14 wells per condition.
Human umbilical cord endothelial cells were first treated with a scramble non-coding siRNA (NC) or siRNA for NRP-1, subsequently treated with FOL26 in concentrations of 10 nM, 100 nM, and 1000 nM, and endothelial tube formation and the total master segemnts were measured using ImageJ. gene expression of PECAM-1 (CD31) analyzed.
Quantified measurement of total length (FIG. 20b), total master segments length (FIG. 20c), total branching length (FIG. 20d) and total segments length (FIG. 20e) were performed to evaluate angiogenesis in vitro (n=7 per group for FIG. 29 b-e). The quantification of vessel density was assessed with CD31+ positive area (FIG. 21a, n=13 per group). Western blot analysis of phosphorylated AKT (pAKT-T308), AKT, phosphorylated ERK1/2 (p-ERK1/2) and ERK1/2 in endothelial cells stimulated with FOL-26 peptides for 48 hours (FIG. 21b). Quantification of phosphorylation intensities normalized to respective total expressions (FIG. 21c-d, n=3 per group).
Tube formation with rising dose of FOL-026 peptide treatment in siRNA-NC or siNRP-1 group (FIG. 24a) and total length (FIG. 24b), total master segments length (FIG. 24c), total branching length (FIG. 24d) and total segments length (FIG. 24e) was calculated using Angiogenesis Analyzer plug-in ImageJ (n=7-12 per group). Scale bar=150 um. Data are presented as means±SEM and acquired from 3 to 4 independent replicate tests. *P<0.05, **P<0.01, ***P<0.001, ****P<0.0001 by two-way ANOVA followed with Sidak's and Dunnett's multiple comparisons test.
Quantified measurement of total master segments length FIG. 31b was used to evaluate angiogenesis in vitro (n=7 per group). Scale bar=150 um.

[2] = tested on: Human umbilical cord endothelial cells (HUVECs); assay: BrdU cell proliferation in HUVECs; format: cell-based; settings: for proliferation of human umbilical vascular endothelial cells (BrdU uptake): addition of the peptide, increasing concentration; for endothelial cell proliferation (DNA synthesis, uptake of BrdU, O.D. 450 nm): 10 nM, 100 nM, 1000 nM, compared to control; for stimulation of endothelial cell proliferation (BrdU) after NRP-1 knock-down: HUVECs treated with siRNA-NC or siRNA for NRP-1, then peptide
Experimental: Cell proliferation was evaluated with BrdU Cell Proliferation Elisa Kit (Abcam, UK). After incubation at 37° C. overnight with respective complete medium, for NRP-1 knock down-relative experiments, HUVECs and HCASMCs on 96-well plates were transfected with siRNA/siRNA-NC directly; for test polypeptide stimulations, HUVECs and HCASMCs were starved with low-serum condition for additional 24 hours and 48 hours before treatments. At 32 hours after transfection or polypeptide stimulations, cells were cultured with BrdU reagent for another 16 hours to determine cell proliferation. Subsequent steps were performed as manufacturer's instructions and data were read by Wallac 1420 Victor 2 (Perkin Elmer, USA).
For stimulation of endothelial cell proliferation, human umbilical cord endothelial cells were first treated with a scramble non-coding siRNA (NC) or siRNA for NRP-1, subsequently they were treated with FOL26 in concentrations of 10 nM, 100 nM, and 1000 nM, and DNA synthesis analyzed by measuring the uptake of BrdU.
The impact of FOL-026 peptide on human umbilical vascular endothelial cells (HUVECs) proliferation (FIG. 18a) and apoptosis (FIG. 18c) induced with low-oxygen condition was determined by BrdU uptake (n=8-9 per group) and active caspase-3/-7 (n=7-10 per group) separately. The ROS level (FIG. 18b) activated by 50 ug/ml oxidized Low-density Lipoprotein (oxLDL) for 2 hours in cells pre-incubated with FOL-026 peptides was assessed using H2O2 measurement (n=4-8 per group). Representative pictures of endothelial migration into an in vitro scratch injury were shown (FIG. 19a) and the wound closure rate (FIG. 19b) in HUVECs stimulated with increasing concentration of FOL-026 peptide was quantified by image J software (n=8-9 per group). Scale bar=150 um. Data are presented as means±SEM and acquired from 3 to 4 independent replicate tests. *P<0.05, **P<0.01, ****P<0.0001 by one-way ANOVA and Dunnett's post-hoc test.
The efficiency of small interfering RNA transfection for 48 hours in HUVECs was confirmed by qRT-PCR (n=4) (FIG. 22a). Effect of FOL-026 peptide stimulation on cell proliferation (FIG. 22b) and cell apoptosis at 0.1% oxygen (FIG. 22c) in HUVECs transfected with siRNA-NC or siNRP-1 was evaluated by BrdU incorporation (n=4-7 per group) and active caspase-3/-7 ((n=4-7 per group). Representative pictures of endothelial cells at 0 and 5 hours after scratch wounding are shown in 23a. The wound closure rate (FIG. 23b) of siRNA-NC/siNRP-1-transfected HUVECs stimulated with increasing concentration of FOL-026 peptide was quantified by image J software (n=9-12 per group). Scale bar=150 um. Data are presented as means±SEM and acquired from 3 to 4 independent replicate tests. *P<0.05, **P<0.01, ***P<0.001, ****P<0.0001 by Student's t test for A, two-way ANOVA followed with Sidak's and Dunnett's multiple comparisons test for B, C and E.
The endothelial cell proliferation (FIG. 29a) was assessed with BrdU uptake in human umbilical vascular endothelial cells (HUVECs) stimulated with increasing concentration of FOL-005 peptide for 48 hours (n=7-10 per group).

With VDTYDGDISVVYGLR [FOL-005] the “tube formation (total length, master segments, branching, segments length)” value [1] was “increases the tube formation” and the “proliferation of human umbilical vascular endothelial cells (BrdU uptake)” value ([2]; HUVECs) was “increases”.

In the case of AEIDSIELSYGIK [FOL56], the endothelial tube formation [1] is reported as “significantly increased tube formation; also recorded: increased tube formation at all concentrations” and the “endothelial cell proliferation (DNA synthesis, uptake of BrdU, O.D. 450 nm)” value ([2]; HUVECs) is reported as “significant increase in proliferation; also recorded: increases proliferation at all concentrations”.

In the case of VDTYDGGISVVYGLR [FOL-026], the “tube formation (total length, master segments, branching, segments length)” value [1] is reported as “positive effect”, the “endothelial tube formation after NRP-1 knock-down” value [1] is reported as “induce tube formation” and the “endothelial tube formation after NRP-1 knock-down” value ([1]; listed as FOL26) is reported as “increased tube formation compared to control in a NRP-1 dependent way”. For the same sequence, the endothelial tube formation ([1]; listed as FOL26) was “significantly increased tube formation; also recorded: increased tube formation compared to control”, the “stimulation of endothelial cell proliferation (BrdU) after NRP-1 knock-down” value [2] was “blocks the effect” and the “stimulation of endothelial cell proliferation (BrdU) after NRP-1 knock-down” value ([2]; listed as FOL26) was “NRP-1 dependent”. The “endothelial cell proliferation (DNA synthesis, uptake of BrdU, O.D. 450 nm)” value ([2]; HUVECs, listed as FOL26) was “significant increase in proliferation; also recorded: increase in O.D. (450 nm)”, the “BrdU uptake after siRNA for NRP-1” value ([2]; HUVECs, 10 and 100 nM) was “reduction” and the “proliferation of human umbilical vascular endothelial cells (BrdU uptake)” value ([2]; HUVECs) was “increases”.
